Reference: patent US20070280957A1, “Change of the Load State of Mhc Molecules” (priority 2004, published 2007)
“Also recorded” adds a separate entry of the source.

How the values were obtained:
[1] = biological target: T1, soluble HLA-DR1 (DRA1*0101, DRB1*0101) (Homo sapiens, UniProt P01903+P01911, A100R/D57E/F55L/F60I/F76Y/I96L/L162R/M171V/P40L/Q125E/R42F/V115G/Y59C); assay: Loading of empty soluble HLA-DR1 with biotinylated HA306-318 peptide, sandwich ELISA; format: biochemical
T1 construct: shortened α- and […]-chains without the cytoplasmatic and transmembrane portion of the MHC molecule; made in house; host or cells: S2 insect cells
Description: In order to monitor catalysis of the loading of HLA-DR molecules by compounds of formulae I, IA, II, III and IV1 to IV3, empty, soluble DR molecules were incubated with biotinylated, high-affinity peptide, and these were then detected in a sandwich ELISA for the MHC complexes.
All the batches were then adjusted to a final volume of 10 μl with 2% BSA-PO4^3− buffer (in the case of HLA-DR1 only with PO4^3− buffer). The reaction was started by incubation at 37° C. in a thermocycler. After 40 minutes, the incubation was terminated and the loading reaction was stopped by storage on ice and addition of 50 μl of ice-cold 1% BSA-PBS.
The detection of bound peptide was carried out by means of a sandwich ELISA. […] Between these steps, the plate was washed twice with PBS-0.05% Tween with the aid of a PW plate-washing device (Tecan Industries) and, before filling with fresh solution, all remaining liquid residues were removed by tapping on Scott®Natura paper towels (Hakle-Kimberly Deutschland GmbH). After blocking of non-specific binding sites, the plate was washed three times and filled with 50 μl/well of 1% BSA-PBS. 2×25 μl per reaction batch were transferred to the plate as double values and were carefully mixed thereon (total volume per well: 75 μl). From each filled series, a further 25 μl/well were then again titrated on the plate in a series of two-stage dilutions (final volume per well: 50 μl). The plates so filled were then stored for 2 hours at 4° C. under stationary conditions. Each plate was then washed six times as described above and filled with 80 μl/well of Eu^3+-streptavidin staining solution (europium-streptavidin stock solution diluted 1:10,000 with 1% BSA-PBS) and incubated for 30 minutes at room temperature (RT). After washing for a further eight times, 100 μl/well of fluorescence-activated solution (enhancer) were then added and the signal was measured by means of a Victor^2-multilabelcounter (Wallac Oy) at an excitation wavelength of 340 nm and an emission wavelength of 615 nm in time-resolving mode.
The following experiment was therefore carried out. One catalyst in a fixed concentration of 0.05 mM was introduced into each of a number of batches for loading HLA-DR1 with HA-biot. The same concentration of a second catalyst was then added to each batch. As controls, 1×1% DMSO was added and, as negative control, a reaction mixture was prepared with 2×1% DMSO. The reaction mixtures were then incubated for 40 minutes as already described and the load was measured in a sandwich ELISA.
The resulting load was then determined in an ELISA using biotinylated peptide (see FIG. 1).
The amount of peptide/MHC complexes formed within this time was then determined by means of an ELISA assay (capture antibody: anti-HLA-DR; detection: fluorescent-labelled streptavidin). The activities of the individual compounds were grouped on the basis of the dose/activity curves obtained thereby.

[2] = biological target: T2, HLADR2 (DRB1*1501) (Homo sapiens, UniProt P01903+P01911); assay: HLA-DR2-restricted T-cell response (08073 T-cells, MGAR cells) after catalysed loading; format: cell-based; conditions: MBP86-100, 08073 T-cells
T2 construct: endogenous in cells; host or cells: MGAR cells
Description: (§1) For evaluation, dose-activity curves of a HLA-DR4-restricted (FIG. 4, left-hand panel) and a HLA-DR2-restricted T-cell response (FIG. 4, right-hand panel) were prepared.

[3] = system: DCs from HLA-DR1 (DRB1*0101)-transgenic mice; assay: Loading of dendritic cells with HA306-318 and DC-mediated T-cell response; format: cell-based
Description: Dendritic cells ([…]) are one of the most important sub-groups of “professional” antigen-presenting cells. Therefore, in the present example, DCs from HLA-DR1 (DRB1*0101)-transgenic mice were used, the DCs being loaded for 4 hours with biotinylated HA306-318 peptide. Then, in order to determine the peptide load, the cells were stained with streptavidin-APC (SA-APC) and also with anti-HLA-DR and analysed by continuous-flow cytometry (FIG. 14A).

[4] = biological target: T3, HLA-DR1 (DRB1*0101) (Homo sapiens, UniProt P01903+P01911, A100R/D57E/F55L/F60I/F76Y/I96L/L162R/M171V/P40L/Q125E/R42F/V115G/Y59C); assay: HLA-DR1-restricted T-cell response after catalysed loading of 721.221 cells (EvHA/X5, hCII19.3 T-cells); format: cell-based; conditions: HA306-318 (EvHA/X5) or CO260-273 (hCII19.3) loaded onto 721.221 cells
T3 construct: HLA-DR-expressing 721.221 cells; endogenous in cells; host or cells: 721.221 cells
Text: In the present comparison test, the enhancement of the T-cell response by catalysis of the loading of HLA-expressing cells was investigated. […] Either HA306-318 (see also FIG. 3, left-hand panel) or CO260-273 (see also FIG. 3, right-hand panel) was used as peptide antigen. After the loading, the cells were washed and used to stimulate EvHA/X5 and hCII19.3 cells, respectively.
In order to investigate the catalysis of a HLA-DR1 (DRB1*0101)-restricted T-cell response by various catalytically active adamantyl compounds, dose-activity curves of the catalysis of a HLA-DR1 (DRB1*0101)-restricted T-cell response were prepared. The experiment was carried out analogously to Comparison Experiment 3.3, the peptide antigen HA306-318 being loaded onto 721.221 cells in order thereby to stimulate EvHA/X5 T-cells. […] Because the position of the dose-activity curves is evidently also determined by the side chain, a modulating activity can be attributed thereto.

[5] = biological target: HLA-DR2 (DRB1*1501; β86V) wild-type molecule (Homo sapiens, UniProt P01903+P01911); assay: Catalysis of peptide binding to HLA-DR2 wild-type molecule on fibroblast cells
Description: The test was carried out as described under Comparison Test 3.3.

[6] = biological target: H2-A^k (Mus musculus, UniProt P01910+P06343); assay: T-cell assay on mouse MHC class II molecule H2-A; format: cell-based; conditions: T-cell assays
Chain of H2-A^k (P01910 24-256): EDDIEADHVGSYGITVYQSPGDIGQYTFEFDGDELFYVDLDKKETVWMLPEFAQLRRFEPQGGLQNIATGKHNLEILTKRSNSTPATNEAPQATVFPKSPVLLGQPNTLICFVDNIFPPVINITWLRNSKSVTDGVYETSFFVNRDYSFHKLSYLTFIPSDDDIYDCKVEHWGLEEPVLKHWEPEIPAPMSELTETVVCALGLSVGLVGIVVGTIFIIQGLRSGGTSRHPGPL
Chain of H2-A^k (P06343 28-263): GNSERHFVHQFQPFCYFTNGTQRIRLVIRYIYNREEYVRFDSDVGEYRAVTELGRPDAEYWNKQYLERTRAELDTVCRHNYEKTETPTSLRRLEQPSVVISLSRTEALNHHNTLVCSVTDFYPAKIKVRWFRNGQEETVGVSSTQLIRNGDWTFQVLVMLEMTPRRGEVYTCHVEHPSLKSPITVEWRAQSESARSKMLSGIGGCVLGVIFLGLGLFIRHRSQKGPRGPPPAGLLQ
Description: (§2) In the following, the catalysis of HLA loading by pCP was determined for the purposes of comparison. […] These dose-activity curves show the activity of the two catalysts on HLA-DR molecules with a deep or flat P1 pocket {β86G and β86V} as well as on the mouse MHC class II molecules H2-Ek and H2-Ak.

[7] = biological target: HLA-DR4 (DRB1*0401) (Homo sapiens, UniProt P01903+P01911, A100K/A169T/F76Y/I96L/K127E/L162R/M171V/N62H/P40V/Q125Y/R42H/S133A/S149N/S66Y/V115G/V209L/W38E); conditions: HA306-318, 8475/94 T-cells
Description: as §1

[8] = system: HLA-DR molecules with a deep or flat P1 pocket (β86G and β86V); assay: T-cell assays on HLA-DR molecules with a deep or flat P1 pocket; format: cell-based, human; conditions: dose-activity curves
Description: as §2

[9] = system: H2-E^k; assay: T-cell assay on mouse MHC class II molecule H2-E; format: cell-based; conditions: T-cell assays
Description: as §2

SMILES | catalytic activity in the ELISA [1] | HLA-DR2-restricted T-cell response [2] | HA306-318 peptide concentration that triggers the T-cell response reached at 100 ng/ml without catalyst ([3]; 250 μM catalyst) | peptide signal on the surface of the DCs ([3]; 250 μM, 4 hours, biotinylated HA306-318) | strength of T-cell responses vs DCs loaded without catalyst ([3]; DCs loaded with antigen in the presence of catalyst) | immune response of HLA-DR1-restricted T-cells [4] | catalysis of the binding of MBP86-100 to HLA-DR2 wild-type molecule [5] | effect on H2-A molecules [6] | HLA-DR4-restricted T-cell response [7] | activity on HLA-DR molecules with deep or flat P1 pocket [8] | effect on H2-E molecules [9]
OCCC12CC3CC(CC(C3)C1)C2 [I 1, 2-(1-adamantyl)-ethanol] | substantially greater catalytic activity | unable to effect catalysis | less than 10 ng/ml | markedly stronger peptide signal | up to 15 times | markedly enhanced | unable to effect catalysis |  |  |  | 
Oc1ccc(Cl)cc1 [pCP, p-chlorophenol] |  | enhancing effect on all the HLA-DR molecules investigated |  |  |  |  |  | no effect | enhancing effect on all the HLA-DR molecules investigated | no dependence on the […]86 dimorphism; also recorded: independent of the depth of the P1 pocket | no effect
